Experimental data from US10533006B2, “Nitrogen-containing heterocycle and carbocycle derivatives having TrkA inhibitory activity” (Shionogi & Co., Ltd., priority 2016, dated 2020).

molecular target: T1, human TrkA (Homo sapiens, UniProt P04629); assay: Human TrkA inhibition assay; assay type: biochemical; conditions: human TrkA phosphorylation inhibition, ATP 500 μmol/L; read-out: IC50_nM
T1 construct: purchased Lifetechnologies PV3144
Experimental: Seven point five L per well of human TrkA (PV3144, Lifetechnologies, final concentration: 1 nmol/L) suspended in the assay buffer (100 mmol/L 4-(2-hydroxyethyl)-1-piperazineethanesulfonic acid (HEPES), 10 mmol/L magnesium chloride, 0.003 vol % Brij-35, 0.004 vol % Tween20 and 1 mmol/L dithiothreitol (DTT)) was applied in a 384 well plate and the plate was pre-incubated for 15 min at room temperature with 0.4 μL of each compound (final concentration: 200 μmol/L-0.1 nM) dissolved in DMSO. Then, fluorescent substrate (FL-peptide 27, 760424, PerkinElmer, final concentration: 1.5 μmol/L) and ATP (final concentration 500 μmol/L) dissolved in the assay buffer was added in each well. After the incubation of 120 min at 37° C., fifteen μL of termination buffer (100 mmol/L HEPES, 40 mmol/L ethylenediaminetetraacetic acid (EDTA), 10 mmol/L magnesium chloride, 0.003 vol % Brij-35, 0.004 vol % Tween20, 1 mmol/L DTT and 0.16 vol % Coating Reagent 3) was added in each well to stop the enzyme reaction. Fluorescent intensities (FI) of phosphorylated and non-phosphorylated fluorescent substrates were measured by LabChip EZReader II (Caliper LifeSciences, Inc.), and conversion ratio (CR) was calculated by the following formula-1. The CR in the well applied with DMSO alone was used as a negative control and the CR in the well without applying TrkA was used as a positive control. The inhibitory effect of each compound on TrkA phosphorylation was calculated by the following formula-2. CR (%)=(FI of phosphorylated substrate/(FI of phosphorylated substrate+FI of non-phosphorylated substrate))×100 (Formula-1) Phosphorylation inhibition (%)=(1−(CR with compound treatment−CR of positive control)/(CR of negative control−CR of positive control))×100 (Formula-2)
IC50 values (nmol/L) were determined by the logistic regression using the inhibition data in 10 points of 3-fold dilution series at a compound concentration range of 2 μmol/L to 0.1 nmol/L, or 15 points of 3-fold dilution series at the range of 200 μmol/L to 0.04 nmol/L.

T1 sequence (P04629 33-796): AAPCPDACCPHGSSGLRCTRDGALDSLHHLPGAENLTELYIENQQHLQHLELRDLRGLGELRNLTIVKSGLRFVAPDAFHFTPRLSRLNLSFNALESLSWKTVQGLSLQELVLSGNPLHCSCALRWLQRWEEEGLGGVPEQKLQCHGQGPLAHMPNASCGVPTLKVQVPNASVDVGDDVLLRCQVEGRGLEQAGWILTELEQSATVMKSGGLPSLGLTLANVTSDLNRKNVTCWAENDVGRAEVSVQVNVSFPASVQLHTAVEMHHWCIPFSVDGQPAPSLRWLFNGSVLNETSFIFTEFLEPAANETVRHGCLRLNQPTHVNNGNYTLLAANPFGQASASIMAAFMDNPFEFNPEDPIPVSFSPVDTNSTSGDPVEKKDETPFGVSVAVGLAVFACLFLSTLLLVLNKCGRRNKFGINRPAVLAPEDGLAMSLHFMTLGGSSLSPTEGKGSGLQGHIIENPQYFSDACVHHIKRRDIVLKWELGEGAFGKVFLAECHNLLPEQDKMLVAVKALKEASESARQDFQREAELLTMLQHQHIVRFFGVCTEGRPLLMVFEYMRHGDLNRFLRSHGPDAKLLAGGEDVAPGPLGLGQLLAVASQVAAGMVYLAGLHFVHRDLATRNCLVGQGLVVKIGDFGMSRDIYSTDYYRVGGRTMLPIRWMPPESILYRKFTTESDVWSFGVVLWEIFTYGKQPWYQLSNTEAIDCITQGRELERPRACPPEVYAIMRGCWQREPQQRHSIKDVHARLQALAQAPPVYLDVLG

IC50, > 1000 nM:
Cc1c(-c2cnn(C)c2)nn(-c2ccccc2)c1NC(=O)N[C@@H]1CN(Cc2ccccc2)C[C@H]1c1ccnc(F)c1 (racemic) [Compound I-18]

IC50, 100 to 1000 nM:
COCCN1C[C@@H](NC(=O)Nc2c(C)c(-c3cnn(C)c3)nn2-c2ccccc2)[C@H](c2cc(Cl)nc(Cl)c2)C1 (racemic) [Compound I-4]

IC50, < 100 nM:
COCCN1C[C@@H](NC(=O)Nc2c(C)c(-c3ccnc(C(=O)N[C@@H]4CCCOC4)c3)nn2-c2ccccc2)[C@H](c2ccccc2)C1 (mixture of isomers) [Compound I-72]
COCCN1C[C@@H](NC(=O)Nc2c(C)c(-c3cnn(C)c3)nn2-c2ccccc2)[C@H](c2ccnc(Cl)c2)C1 (racemic) [Compound I-1]
COCCN1C[C@@H](NC(=O)Nc2c(C)c(-c3cnn(C)c3)nn2-c2ccccc2)[C@H](c2ccnc(F)c2)C1 (racemic) [Compound I-2]
COCCN1C[C@@H](NC(=O)Nc2c(C)c(-c3ccc4c(cnn4C)c3)nn2-c2ccccc2)[C@H](c2ccccc2)C1 (racemic) [Compound I-3]
COCCN1C[C@@H](NC(=O)Nc2c(C)c(-c3cnn(C)c3)nn2-c2ccccc2)[C@H](c2cc(F)nc(F)c2)C1 (racemic) [Compound I-7]
COCCN1C[C@@H](NC(=O)Nc2c(C)c(-c3ccc(C(=O)NCC(F)(F)F)nc3)nn2-c2ccccc2)[C@H](c2ccccc2)C1 (racemic) [Compound I-12]
COCCN1C[C@@H](NC(=O)Nc2c(C)c(-c3cnn(C)c3)nn2-c2ccccc2)[C@H](c2cnc(Cl)c(F)c2)C1 (racemic) [Compound I-16]
COCCN1C[C@@H](NC(=O)Nc2c(C)c(-c3cnc4c(cnn4C)c3)nn2-c2ccccc2)[C@H](c2ccccc2)C1 (racemic) [Compound I-17]
COCCN1C[C@@H](NC(=O)Nc2c(C)c(-c3cnn(C)c3)nn2-c2ccccc2)[C@H](c2cnc(F)c(Cl)c2)C1 (racemic) [Compound I-19]
Cc1c(-c2cnn(C)c2)nn(-c2ccccc2)c1NC(=O)N[C@@H]1CN(CCOC(F)(F)F)C[C@H]1c1ccnc(F)c1 (racemic) [Compound I-20]
COCCN1C[C@@H](NC(=O)Nc2c(C)c(-c3ccc4c(cnn4C)c3)nn2-c2ccccc2)[C@H](c2cnc(F)c(F)c2)C1 (racemic) [Compound I-26]
COCCN1C[C@@H](NC(=O)Nc2c(C)c(-c3ccc(C(=O)NCc4ccccc4)nc3)nn2-c2ccccc2)[C@H](c2ccccc2)C1 (racemic) [Compound I-27]
COCCN1C[C@@H](NC(=O)Nc2c(C)c(-c3cnc4cnn(C)c4c3)nn2-c2ccccc2)[C@H](c2ccccc2)C1 (racemic) [Compound I-28]
COCCN1C[C@@H](NC(=O)Nc2c(C)c(-c3ccnc(C(=O)NC4CCOCC4)c3)nn2-c2ccccc2)[C@H](c2ccccc2)C1 (racemic) [Compound I-29]
COCCN1C[C@@H](NC(=O)Nc2c(C)c(-c3cnc4nccn4c3)nn2-c2ccccc2)[C@H](c2ccccc2)C1 (racemic) [Compound I-30]
COCCN1C[C@@H](NC(=O)Nc2c(C)c(-c3cnc(OCCO)nc3)nn2-c2ccccc2)[C@H](c2ccccc2)C1 (racemic) [Compound I-31]
COCCN1C[C@@H](NC(=O)Nc2c(C)c(-c3cnc4nc(C)nn4c3)nn2-c2ccccc2)[C@H](c2ccccc2)C1 (racemic) [Compound I-32]
COCCN1C[C@@H](NC(=O)Nc2c(C)c(-c3cnc4ncnn4c3)nn2-c2ccccc2)[C@H](c2ccccc2)C1 (racemic) [Compound I-33]
COCCN1C[C@@H](NC(=O)Nc2c(C)c(-c3cnc4nc(C)oc4c3)nn2-c2ccccc2)[C@H](c2ccccc2)C1 (racemic) [Compound I-34]
CNC(=O)c1ccc(-c2nn(-c3ccccc3)c(NC(=O)N[C@@H]3CN(CCOC)C[C@H]3c3ccccc3)c2C)cn1 (racemic) [Compound I-35]
COCCN1C[C@@H](NC(=O)Nc2c(C)c(-c3ccc(C(=O)N(C)C)nc3)nn2-c2ccccc2)[C@H](c2ccccc2)C1 (racemic) [Compound I-36]
COCCN1C[C@@H](NC(=O)Nc2c(C)c(-c3cnc4c(c3)nnn4C)nn2-c2ccccc2)[C@H](c2ccccc2)C1 (racemic) [Compound I-37]
COCCN1C[C@@H](NC(=O)Nc2c(C)c(-c3cnc4c(ccn4C)c3)nn2-c2ccccc2)[C@H](c2ccccc2)C1 (racemic) [Compound I-38]
COCCN1C[C@@H](NC(=O)Nc2c(C)c(-c3cnn(C)c3)nn2-c2ccccc2)[C@H](c2cc(F)nc(Cl)c2)C1 (racemic) [Compound I-39]
COCCN1C[C@@H](NC(=O)Nc2c(C)c(-c3cnc4ccnn4c3)nn2-c2ccccc2)[C@H](c2ccccc2)C1 (racemic) [Compound I-40]
COCCN1C[C@@H](NC(=O)Nc2c(C)c(-c3ccc(C(=O)NC4CCOCC4)nc3)nn2-c2ccccc2)[C@H](c2ccccc2)C1 (racemic) [Compound I-41]
COCCN1C[C@@H](NC(=O)Nc2c(C)c(-c3ccc(C(N)=O)nc3)nn2-c2ccccc2)[C@H](c2ccccc2)C1 (racemic) [Compound I-42]
CCN1CCC(NC(=O)c2cc(-c3nn(-c4ccccc4)c(NC(=O)N[C@@H]4CN(CCOC)C[C@H]4c4ccccc4)c3C)ccn2)CC1 (racemic) [Compound I-43]
COCCN1C[C@@H](NC(=O)Nc2c(C)c(-c3ccnc(C(N)=O)c3)nn2-c2ccccc2)[C@H](c2ccccc2)C1 (racemic) [Compound I-44]
CNC(=O)c1cc(-c2nn(-c3ccccc3)c(NC(=O)N[C@@H]3CN(CCOC)C[C@H]3c3ccccc3)c2C)ccn1 (racemic) [Compound I-45]
CCNC(=O)c1cc(-c2nn(-c3ccccc3)c(NC(=O)N[C@@H]3CN(CCOC)C[C@H]3c3ccccc3)c2C)ccn1 (racemic) [Compound I-46]
COCCN1C[C@@H](NC(=O)Nc2c(C)c(-c3ccnc(C(=O)N(C)C)c3)nn2-c2ccccc2)[C@H](c2ccccc2)C1 (racemic) [Compound I-47]
COCCN1C[C@@H](NC(=O)Nc2c(C)c(-c3ccnc(C(=O)NCC(F)(F)F)c3)nn2-c2ccccc2)[C@H](c2ccccc2)C1 (racemic) [Compound I-48]
COCCN1C[C@@H](NC(=O)Nc2c(C)c(-c3ccnc(C(=O)NCCO)c3)nn2-c2ccccc2)[C@H](c2ccccc2)C1 (racemic) [Compound I-49]
CCN1CCC(NC(=O)c2ccc(-c3nn(-c4ccccc4)c(NC(=O)N[C@@H]4CN(CCOC)C[C@H]4c4ccccc4)c3C)cn2)CC1 (racemic) [Compound I-50]
COCCN1C[C@@H](NC(=O)Nc2c(C)c(-c3cnc4c(c3)ncn4C)nn2-c2ccccc2)[C@H](c2ccccc2)C1 (racemic) [Compound I-51]
CNC(=O)c1cc(-c2nn(-c3ccccc3)c(NC(=O)N[C@@H]3CN(CCOC)C[C@H]3c3ccccc3)c2C)cn(C)c1=O (racemic) [Compound I-52]
CNC(=O)c1cc(-c2nn(-c3ccccc3)c(NC(=O)N[C@@H]3CN(CCOC)C[C@H]3c3ccccc3)c2C)cnc1OC (racemic) [Compound I-53]
CCNC(=O)c1cc(-c2nn(-c3ccccc3)c(NC(=O)N[C@@H]3CN(CCOC)C[C@H]3c3ccccc3)c2C)cn(C)c1=O (racemic) [Compound I-54]
CCNC(=O)c1cc(-c2nn(-c3ccccc3)c(NC(=O)N[C@@H]3CN(CCOC)C[C@H]3c3ccccc3)c2C)cnc1OC (racemic) [Compound I-55]
COCCN1C[C@@H](NC(=O)Nc2c(C)c(-c3cnc(C)nc3)nn2-c2ccccc2)[C@H](c2cnc(F)c(F)c2)C1 (racemic) [Compound I-60]
CNC(=O)c1ncc(-c2nn(-c3ccccc3)c(NC(=O)N[C@@H]3CN(CCOC)C[C@H]3c3ccccc3)c2C)cc1C (racemic) [Compound I-61]
COCCN1C[C@@H](NC(=O)Nc2c(C)c(-c3cnn(C)c3)nn2-c2ccccc2)[C@H](c2cnc(Cl)s2)C1 (racemic) [Compound I-62]

same assay, conditions: human TrkA phosphorylation inhibition, ATP 500 μmol/L; read-out: IC50 value

IC50, 0.98 nM:
COCCN1C[C@@H](NC(=O)Nc2c(C)c(-c3cc(C(=O)NC4CCOCC4)c(=O)n(C)c3)nn2-c2ccccc2)[C@H](c2ccccc2)C1 (racemic) [Compound I-56]

IC50, 1 nM:
COCCN1C[C@@H](NC(=O)Nc2c(C)c(-c3cnc(OC)c(C(=O)NC4CCOCC4)c3)nn2-c2ccccc2)[C@H](c2ccccc2)C1 (racemic) [Compound I-57]
